Several values for one entry are separate records, joined by “and”; a condition that tells them apart may be missing. Equal values may be shown once. Read-outs that look alike come from different tables or passages of the source.
Experiments:
[1] = tested on: ben-1 mutant (ECA882) C. elegans; test: microbe, parasite or virus in culture; conditions: Caenorhabditis elegans; for viability at 15.6 µM / viability at 31.3 µM / viability at 62.5 µM / viability at 125 µM / viability at 250 µM / viability at 500 µM / viability at 1000 µM: read-out: C. elegans ben-1(e1880) development/viability
Procedure, shortened: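 Development and viability scored from single well images as total worm pixels divided by the matching DMSO control value, mean of ≥3 replicates. Worms added as synchronized L1s to HB101 suspension in liquid NGM with compound (1% DMSO v/v), grown 6 days at 20 °C with shaking.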

[2] = molecular target: B. taurus (heart) complex I (Bos taurus, UniProt P03887+P17694+P42026); test: biochemical; assay type: biochemical; conditions: for IC50: read-out: B. taurus Complex I IC50
Procedure, shortened: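 Complex I activity followed as DCIP reduction (600 nm, 30 s reads, 15 min) with 80 μM NADH and 60 μM decylubiquinone in 25 mM KPi pH 7.5 containing 2 μM antimycin A and 2 mM KCN. Freeze-thawed mouse or bovine heart mitochondria at 0.2 mg/mL; initial-rate percent of solvent control, single-point 100 μM or dose-response.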

[3] = tested on: L1 wild-type C. elegans; test: microbe, parasite or virus in culture; conditions: Caenorhabditis elegans, read-out: C. elegans KCN Survival Assay LC50, estimated from fitted dose-response curves; mean of at least two biological replicates
[4] = read-out: C. elegans (ben-1) Development & Viability Assay LC50
[5] = B. taurus (heart) mitochondria, mean of replicates, read-out: percent (%) in vitro complex I activity relative to solvent control
[6] = B. taurus (heart) mitochondria, single replicate, read-out: percent (%) in vitro complex I activity relative to solvent control
[7] = B. taurus (heart) mitochondria, Mean of replicates, read-out: in vitro complex I activity relative to solvent control
[8] = B. taurus (heart) mitochondria, single replicate, read-out: in vitro complex I activity relative to solvent control
[9] = read-out: C. elegans ben-1 log10 LC50 (converted)

Sequence of B. taurus (heart) complex I (P03887 whole entry): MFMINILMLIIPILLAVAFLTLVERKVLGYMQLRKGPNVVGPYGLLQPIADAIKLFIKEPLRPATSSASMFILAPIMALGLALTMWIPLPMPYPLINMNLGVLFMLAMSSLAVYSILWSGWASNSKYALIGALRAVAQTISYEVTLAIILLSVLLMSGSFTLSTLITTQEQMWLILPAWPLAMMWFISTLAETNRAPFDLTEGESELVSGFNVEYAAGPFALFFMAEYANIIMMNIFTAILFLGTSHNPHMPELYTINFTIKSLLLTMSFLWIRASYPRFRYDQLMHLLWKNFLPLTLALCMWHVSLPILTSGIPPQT
Sequence of B. taurus (heart) complex I (P17694 34-463): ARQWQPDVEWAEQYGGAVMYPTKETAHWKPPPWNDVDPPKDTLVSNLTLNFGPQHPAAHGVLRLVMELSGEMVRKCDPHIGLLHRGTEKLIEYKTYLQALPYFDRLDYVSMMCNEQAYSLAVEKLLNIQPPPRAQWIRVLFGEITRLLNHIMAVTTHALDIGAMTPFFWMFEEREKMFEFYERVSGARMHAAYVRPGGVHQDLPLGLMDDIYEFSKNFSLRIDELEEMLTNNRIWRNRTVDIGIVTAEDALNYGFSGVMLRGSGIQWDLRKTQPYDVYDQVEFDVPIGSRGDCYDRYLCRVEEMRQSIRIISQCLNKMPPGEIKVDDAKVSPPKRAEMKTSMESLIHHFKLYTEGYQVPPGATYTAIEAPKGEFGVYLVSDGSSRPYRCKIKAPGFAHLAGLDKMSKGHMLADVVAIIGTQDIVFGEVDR
Sequence of B. taurus (heart) complex I (P42026 38-216): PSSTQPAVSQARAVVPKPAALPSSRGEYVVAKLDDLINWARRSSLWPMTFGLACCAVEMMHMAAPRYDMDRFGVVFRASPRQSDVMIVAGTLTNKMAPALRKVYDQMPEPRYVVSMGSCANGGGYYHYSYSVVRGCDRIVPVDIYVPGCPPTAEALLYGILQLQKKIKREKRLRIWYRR

## CC(C)Cc1ccc(C(C)c2nc3ccccc3n2C)cc1 (stereo not drawn) [NPD8790]
[1]; [4]
  LC50: > 1000 µM
[2]; 0.125 µM, B. taurus (heart) mitochondria, mean of replicates, read-out: percent (%) in vitro complex I activity relative to solvent control
  remaining activity at 0.125 µM: 101%
[2]; [5]
  remaining activity at 0.313 µM: 112%
  remaining activity at 0.625 µM: 103%
  remaining activity at 1.5 µM: 107%
  remaining activity at 3 µM: 104%
  remaining activity at 15 µM: 79.4%
  remaining activity at 37.5 µM: 38%
  remaining activity at 75 µM: 13.6%
[2]; [6]
  remaining activity at 0.313 µM: 118%
  remaining activity at 0.625 µM: 96.1%
  remaining activity at 37.5 µM: 38.8%
[2]; B. taurus (heart) mitochondria, 0.06 µM, Mean of replicates, read-out: in vitro complex I activity relative to solvent control
  remaining activity at 0.06 µM: 103%
[2]; B. taurus (heart) mitochondria, 0.13 µM, Mean of replicates, read-out: in vitro complex I activity relative to solvent control
  remaining activity at 0.13 µM: 101%
[2]; [7]
  remaining activity at 0.313 µM: 112%
  remaining activity at 0.625 µM: 103%
  remaining activity at 1.5 µM: 107%
  remaining activity at 3 µM: 104%
  remaining activity at 15 µM: 79.4%
  remaining activity at 37.5 µM: 38%
  remaining activity at 75 µM: 13.6%
[2]; [8]
  remaining activity at 0.313 µM: 118%
  remaining activity at 0.625 µM: 96.1%
  remaining activity at 37.5 µM: 38.8%
[2]; B. taurus heart mitochondria
  IC50: 27.2 µM
[2]; B. taurus, dose 0.0001 µM, Mean of replicates, read-out: Complex I activity, dose-response data
  activity at 0.0001 µM: 104%
[2]; B. taurus, dose 0.0001 µM, individual replicates (Rep)
  Complex I activity, dose-response data: 106.495 and 102.513 and 108.647
[2]; B. taurus, dose 0.0001 µM, individual replicates (Rep), read-out: Complex I activity, dose-response data
  activity at 0.0001 µM: 97.6%
[2]; B. taurus, dose 0.0005 µM, Mean of replicates, read-out: Complex I activity, dose-response data
  activity at 0.0005 µM: 101%
[2]; B. taurus, dose 0.0005 µM, individual replicates (Rep)
  Complex I activity, dose-response data: 104.650 and 93.657 and 105.597
[2]; B. taurus, dose 0.0005 µM, individual replicates (Rep), read-out: Complex I activity, dose-response data
  activity at 0.0005 µM: 99.4%
[2]; B. taurus, dose 0.001 µM, Mean of replicates, read-out: Complex I activity, dose-response data
  activity at 0.001 µM: 105%
[2]; B. taurus, dose 0.001 µM, individual replicates (Rep)
  Complex I activity, dose-response data: 106.670 and 104.354 and 107.534
[2]; B. taurus, dose 0.001 µM, individual replicates (Rep), read-out: Complex I activity, dose-response data
  activity at 0.001 µM: 103%
[2]; B. taurus, dose 0.0025 µM, Mean of replicates, read-out: Complex I activity, dose-response data
  activity at 0.0025 µM: 104%
[2]; B. taurus, dose 0.0025 µM, individual replicates (Rep)
  Complex I activity, dose-response data: 99.492 and 117.130 and 91.896 and 108.464
[2]; B. taurus, dose 0.005 µM, Mean of replicates, read-out: Complex I activity, dose-response data
  activity at 0.005 µM: 114%
[2]; B. taurus, dose 0.005 µM, individual replicates (Rep)
  Complex I activity, dose-response data: 112.174 and 127.690 and 101.653 and 112.765
[2]; B. taurus, dose 0.013 µM, Mean of replicates, read-out: Complex I activity, dose-response data
  activity at 0.013 µM: 99.8%
[2]; B. taurus, dose 0.013 µM, individual replicates (Rep)
  Complex I activity, dose-response data: 108.528 and 89.880 and 103.599
[2]; B. taurus, dose 0.013 µM, individual replicates (Rep), read-out: Complex I activity, dose-response data
  activity at 0.013 µM: 97.2%
[2]; B. taurus, dose 0.025 µM, Mean of replicates, read-out: Complex I activity, dose-response data
  activity at 0.025 µM: 101%
[2]; B. taurus, dose 0.025 µM, individual replicates (Rep)
  Complex I activity, dose-response data: 88.122 and 92.313 and 109.456
[2]; B. taurus, dose 0.063 µM, Mean of replicates, read-out: Complex I activity, dose-response data
  activity at 0.063 µM: 103%
[2]; B. taurus, dose 0.063 µM, individual replicates (Rep)
  Complex I activity, dose-response data: 101.538 and 112.181 and 91.251 and 105.094
[2]; B. taurus, dose 0.125 µM, Mean of replicates, read-out: Complex I activity, dose-response data
  activity at 0.125 µM: 101%
[2]; B. taurus, dose 0.125 µM, individual replicates (Rep)
  Complex I activity, dose-response data: 111.398 and 110.709 and 87.488 and 92.420
[2]; B. taurus, dose 0.313 µM, Mean of replicates, read-out: Complex I activity, dose-response data
  activity at 0.313 µM: 112%
[2]; B. taurus, dose 0.313 µM, individual replicates (Rep)
  Complex I activity, dose-response data: 118.464 and 105.228 and 106.985
[2]; B. taurus, dose 0.313 µM, individual replicates (Rep), read-out: Complex I activity, dose-response data
  activity at 0.313 µM: 118%
[2]; B. taurus, dose 0.625 µM, Mean of replicates, read-out: Complex I activity, dose-response data
  activity at 0.625 µM: 103%
[2]; B. taurus, dose 0.625 µM, individual replicates (Rep)
  Complex I activity, dose-response data: 106.273 and 97.568 and 112.424
[2]; B. taurus, dose 0.625 µM, individual replicates (Rep), read-out: Complex I activity, dose-response data
  activity at 0.625 µM: 96.1%
[2]; B. taurus, dose 1.5 µM, Mean of replicates, read-out: Complex I activity, dose-response data
  activity at 1.5 µM: 107%
[2]; B. taurus, dose 1.5 µM, individual replicates (Rep)
  Complex I activity, dose-response data: 108.615 and 114.555 and 94.027 and 109.488
[2]; B. taurus, dose 3 µM, Mean of replicates, read-out: Complex I activity, dose-response data
  activity at 3 µM: 104%
[2]; B. taurus, dose 3 µM, individual replicates (Rep)
  Complex I activity, dose-response data: 105.743 and 114.475 and 92.946 and 103.733
[2]; B. taurus, dose 15 µM, Mean of replicates, read-out: Complex I activity, dose-response data
  activity at 15 µM: 79.4%
[2]; B. taurus, dose 15 µM, individual replicates (Rep)
  Complex I activity, dose-response data: 82.876 and 90.607 and 69.676 and 74.384
[2]; B. taurus, dose 37.5 µM, Mean of replicates, read-out: Complex I activity, dose-response data
  activity at 37.5 µM: 38%
[2]; B. taurus, dose 37.5 µM, individual replicates (Rep)
  Complex I activity, dose-response data: 49.756 and 32.716 and 30.663
[2]; B. taurus, dose 37.5 µM, individual replicates (Rep), read-out: Complex I activity, dose-response data
  activity at 37.5 µM: 38.8%
[2]; B. taurus, dose 75 µM, Mean of replicates, read-out: Complex I activity, dose-response data
  activity at 75 µM: 13.6%
[2]; B. taurus, dose 75 µM, individual replicates (Rep)
  Complex I activity, dose-response data: 6.165 and 16.790 and 16.865 and 14.475
[2]; heart mitochondria
  IC50: 27.2 µM
[2]; log10 of IC50 in µM, B. taurus mitochondria
  Log IC50 B. taurus complex I: 1.43 µM

## Cc1ccc(CSCc2nc3ccccc3[nH]2)cc1 [Compound 7121781]
[1]; [4]
  LC50: 468 µM
[1]
  viability at 15.6 µM: 87.2%
  viability at 31.3 µM: 91.7%
  viability at 62.5 µM: 100%
  viability at 125 µM: 87.1%
  viability at 250 µM: 86.1%
  viability at 500 µM: 47.1%
  viability at 1000 µM: 8.1%
[1]; [9]
  LC50: 468 µM
[3]
  LC50: 9.79 µM

## CCCn1c(COc2ccc(C)cc2)nc2ccccc21 [Compound 6944471]
[1]; [4]
  LC50: > 1000 µM
[1]
  viability at 15.6 µM: 98%
  viability at 31.3 µM: 100%
  viability at 62.5 µM: 100%
  viability at 125 µM: 100%
  viability at 250 µM: 100%
  viability at 500 µM: 62.1%
  viability at 1000 µM: 100%
[1]; read-out: C. elegans ben-1 LC50
  LC50: > 500 µM
[1]; [9]
  LC50: > 500 µM
[3]
  LC50: 10.6 µM
